{
  "source": "ChEMBL document CHEMBL3272148",
  "about": "“Antitumor 1-(X-aryl)-3,3-dialkyltriazenes. 2. On the role of correlation analysis in decision making in drug modification. Toxicity quantitative structure-activity relationships of 1-(X-phenyl)-3,3-dialkyltriazenes in mice” (J Med Chem, 1978)",
  "data": [
    {"system": "L1210", "assay": "Antitumor activity against mouse L1210 cells allografted in mouse assessed as survival rate at 200 mg/kg relative to control", "type": "functional", "conditions": "not given", "units": {"T/C": "%"}, "values": [
      {"smiles": "CCCCN(CC)/N=N/c1[nH]cnc1C(N)=O", "T/C": 124},
      {"smiles": "CCN(CC)/N=N/c1n[nH]cc1C(N)=O", "T/C": 144}
    ]},
    {"system": "L1210", "assay": "Antitumor activity against mouse L1210 cells allografted in mouse assessed as survival rate at 100 mg/kg relative to control", "type": "functional", "conditions": "not given", "units": {"T/C": "%"}, "values": [
      {"smiles": "CCN(CC)/N=N/c1[nH]cnc1C(N)=O", "T/C": 127}
    ]},
    {"system": "L1210", "assay": "Antitumor activity against mouse L1210 cells allografted in mouse assessed as survival rate at 450 mg/kg relative to control", "type": "functional", "conditions": "not given", "units": {"T/C": "%"}, "values": [
      {"smiles": "CCN(CC)/N=N/c1ccc[n+]([O-])c1", "T/C": 141}
    ]},
    {"system": "L1210", "assay": "Antitumor activity against mouse L1210 cells allografted in mouse assessed as survival rate at 265 mg/kg relative to control", "type": "functional", "conditions": "not given", "units": {"T/C": "%"}, "values": [
      {"smiles": "CCCN(CCC)/N=N/c1c(C)n[nH]c1C(=O)OC", "T/C": 131}
    ]},
    {"system": "L1210", "assay": "Antitumor activity against mouse L1210 cells allografted in mouse assessed as survival rate at 32 mg/kg relative to control", "type": "functional", "conditions": "not given", "units": {"T/C": "%"}, "values": [
      {"smiles": "CCCCN(CCCC)/N=N/c1cc(=O)[nH]c(=O)[nH]1", "T/C": 145}
    ]},
    {"system": "L1210", "assay": "Antitumor activity against mouse L1210 cells allografted in mouse assessed as survival rate at 20 mg/kg relative to control", "type": "functional", "conditions": "not given", "units": {"T/C": "%"}, "values": [
      {"smiles": "Cc1n[nH]c(C)c1/N=N/N1CCOCC1", "T/C": 124}
    ]},
    {"species": "Mus musculus", "assay": "Toxicity in mouse assessed as concentration required for producing T/C of 140", "type": "organism-based", "conditions": "in vivo", "values": [
      {"smiles": "CCN(CC)/N=N/c1[nH]cnc1C(N)=O", "log(1/C)": 2.75},
      {"smiles": "CCCN(CCC)/N=N/c1[nH]cnc1C(N)=O", "log(1/C)": 2.7},
      {"smiles": "CCCCN(CCCC)/N=N/c1[nH]cnc1C(N)=O", "log(1/C)": 2.91},
      {"smiles": "CCCCCN(CCCCC)/N=N/c1[nH]cnc1C(N)=O", "log(1/C)": 3.49},
      {"smiles": "CN(C)/N=N/c1[nH]cnc1C(N)=O", "note": "[DACARBAZINE]", "log(1/C)": 2.44}
    ]},
    {"system": "L1210", "assay": "Antitumor activity against mouse L1210 cells allografted in mouse assessed as survival rate at 250 mg/kg relative to control", "type": "functional", "conditions": "not given", "units": {"T/C": "%"}, "values": [
      {"smiles": "NC(=O)c1nc[nH]c1/N=N/N1CCCC1", "T/C": 126}
    ]},
    {"species": "Mus musculus", "assay": "Toxicity in CDF1 mouse assessed as concentration required for producing T/C of 140", "type": "organism-based", "conditions": "in vivo", "values": [
      {"smiles": "CCCCN(C)/N=N/c1ccc(C(N)=O)cc1", "log(1/C)": 3.46},
      {"smiles": "CCCCCCCCN(C)/N=N/c1ccc(C(N)=O)cc1", "log(1/C)": 2.8},
      {"smiles": "CN(C)/N=N/c1ccccc1", "log(1/C)": 3.43},
      {"smiles": "CN(C)/N=N/c1ccc(S(N)(=O)=O)cc1", "log(1/C)": 3.2},
      {"smiles": "CN(C)/N=N/c1ccc(C(F)(F)F)cc1", "log(1/C)": 3.05},
      {"smiles": "CN(C)/N=N/c1ccc(C#N)cc1", "log(1/C)": 3.2},
      {"smiles": "CN(C)/N=N/c1ccc(NC(N)=O)cc1", "log(1/C)": 3.68},
      {"smiles": "Cc1ccc(/N=N/N(C)C)cc1", "log(1/C)": 3.26},
      {"smiles": "COc1ccc(/N=N/N(C)C)cc1", "log(1/C)": 3.55},
      {"smiles": "CCN(C)/N=N/c1ccc(C(N)=O)cc1", "log(1/C)": 3.24},
      {"smiles": "CN(C)/N=N/c1ccc(C(N)=O)cc1", "log(1/C)": 3.32},
      {"smiles": "CN(C)/N=N/c1[nH]cnc1C(N)=O", "note": "[DACARBAZINE]", "log(1/C)": 2.68}
    ]},
    {"system": "not listed separately", "assay": "Half life of the compound at pH 7.4 at 37 degC in presence of serum", "type": "physicochemical", "conditions": "not given", "units": {"half-life": "min"}, "values": [
      {"smiles": "C/N=N/Nc1ccccc1", "half-life": 6}
    ]},
    {"species": "Rattus norvegicus", "assay": "Toxicity in rat assessed as concentration required for producing T/C of 140", "type": "organism-based", "conditions": "in vivo", "values": [
      {"smiles": "CN(C)/N=N/c1ccccc1", "log(1/C)": 2.54},
      {"smiles": "Cc1ccc(/N=N/N(C)C)cc1", "log(1/C)": 2.62},
      {"smiles": "CN(C)/N=N/c1ccc([N+](=O)[O-])cc1", "log(1/C)": 2.06},
      {"smiles": "COc1ccc(/N=N/N(C)C)cc1", "log(1/C)": 2.72},
      {"smiles": "CN(C)/N=N/c1ccc(I)cc1", "log(1/C)": 2.68},
      {"smiles": "CN(C)/N=N/c1ccc(Br)cc1", "log(1/C)": 2.73},
      {"smiles": "CN(C)/N=N/c1ccc(F)cc1", "log(1/C)": 2.71},
      {"smiles": "CN(C)/N=N/c1ccc(Cl)cc1", "log(1/C)": 2.71}
    ]}
  ]
}
